Experimental data from ChEMBL document CHEMBL6127128, “Discovery of the First-in-Class Dual-Target ROCK/HDAC Inhibitor with Potent Antitumor Efficacy in Vivo That Trigger Antitumor Immunity” (J Med Chem, 2024).
Calls of active or inactive are those of the source. No cut-off for these calls is given here.

Legend:
[1] = Half-life in Balb/c mouse at 50 mg/kg, po measured for 24 hrs by LC-MS/MS analysis; assay type: ADME, organism-based; conditions: in vivo
[2] = target: Rho-associated protein kinase 2 (Homo sapiens, UniProt O75116); assay: Inhibition of N-terminal GST-tagged human recombinant wild type ROCK2 (1 to 553 residues) expressed in baculovirus-infected Sf21 cells by HTRF KinEASE assay
Chain of Rho-associated protein kinase 2 (O75116 whole entry, the tested form may be a part): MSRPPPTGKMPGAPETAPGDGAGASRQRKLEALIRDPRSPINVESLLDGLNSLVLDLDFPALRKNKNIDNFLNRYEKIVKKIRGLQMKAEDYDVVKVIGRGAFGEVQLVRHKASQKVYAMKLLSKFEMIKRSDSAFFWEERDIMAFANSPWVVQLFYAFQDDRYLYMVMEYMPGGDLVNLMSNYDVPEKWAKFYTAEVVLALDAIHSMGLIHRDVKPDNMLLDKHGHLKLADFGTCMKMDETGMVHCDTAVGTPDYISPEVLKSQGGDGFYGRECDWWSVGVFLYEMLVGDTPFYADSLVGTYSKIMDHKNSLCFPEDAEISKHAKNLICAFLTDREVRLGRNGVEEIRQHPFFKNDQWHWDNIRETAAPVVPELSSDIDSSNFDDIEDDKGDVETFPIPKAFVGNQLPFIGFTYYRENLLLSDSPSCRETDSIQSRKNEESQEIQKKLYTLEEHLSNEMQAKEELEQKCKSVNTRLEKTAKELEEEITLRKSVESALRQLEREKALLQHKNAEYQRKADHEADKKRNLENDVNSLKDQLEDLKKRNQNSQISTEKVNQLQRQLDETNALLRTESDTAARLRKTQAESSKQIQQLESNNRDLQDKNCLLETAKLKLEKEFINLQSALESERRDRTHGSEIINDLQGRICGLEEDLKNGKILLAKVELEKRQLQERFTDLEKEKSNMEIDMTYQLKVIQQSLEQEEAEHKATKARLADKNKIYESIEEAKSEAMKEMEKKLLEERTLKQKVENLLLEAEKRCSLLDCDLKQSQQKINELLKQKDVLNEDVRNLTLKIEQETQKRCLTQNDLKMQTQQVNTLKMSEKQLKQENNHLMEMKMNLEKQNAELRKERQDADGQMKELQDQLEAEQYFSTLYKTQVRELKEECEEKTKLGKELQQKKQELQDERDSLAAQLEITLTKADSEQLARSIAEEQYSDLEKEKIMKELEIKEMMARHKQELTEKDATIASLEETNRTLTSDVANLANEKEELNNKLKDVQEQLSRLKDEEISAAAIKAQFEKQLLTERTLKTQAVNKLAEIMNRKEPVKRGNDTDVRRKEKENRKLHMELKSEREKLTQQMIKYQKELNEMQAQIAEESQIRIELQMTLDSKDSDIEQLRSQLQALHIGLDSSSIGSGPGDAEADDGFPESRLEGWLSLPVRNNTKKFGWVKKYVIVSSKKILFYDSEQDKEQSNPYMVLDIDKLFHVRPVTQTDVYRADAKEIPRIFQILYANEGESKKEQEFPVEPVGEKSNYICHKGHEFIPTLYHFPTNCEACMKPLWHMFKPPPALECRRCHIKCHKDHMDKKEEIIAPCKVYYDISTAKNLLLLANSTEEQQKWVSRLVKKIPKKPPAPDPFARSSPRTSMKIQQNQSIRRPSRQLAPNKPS

4T1 [3] = assay: Cytotoxicity against mouse 4T1 cells assessed as reduction in cell viability; assay type: functional, cell-based
[4] = target: T1, Protein deacetylase HDAC6 (Homo sapiens, UniProt Q9UBN7); assay: Inhibition of HDAC6 (unknown origin) using Ac-Leu-Gly-Lys(Ac)-AMC as substrate preincubated for 5 mins followed by substrate addition for 30 mins and measured following trypsin addition for 30 mins by fluorescence based analysis
T1 sequence (Q9UBN7 whole entry): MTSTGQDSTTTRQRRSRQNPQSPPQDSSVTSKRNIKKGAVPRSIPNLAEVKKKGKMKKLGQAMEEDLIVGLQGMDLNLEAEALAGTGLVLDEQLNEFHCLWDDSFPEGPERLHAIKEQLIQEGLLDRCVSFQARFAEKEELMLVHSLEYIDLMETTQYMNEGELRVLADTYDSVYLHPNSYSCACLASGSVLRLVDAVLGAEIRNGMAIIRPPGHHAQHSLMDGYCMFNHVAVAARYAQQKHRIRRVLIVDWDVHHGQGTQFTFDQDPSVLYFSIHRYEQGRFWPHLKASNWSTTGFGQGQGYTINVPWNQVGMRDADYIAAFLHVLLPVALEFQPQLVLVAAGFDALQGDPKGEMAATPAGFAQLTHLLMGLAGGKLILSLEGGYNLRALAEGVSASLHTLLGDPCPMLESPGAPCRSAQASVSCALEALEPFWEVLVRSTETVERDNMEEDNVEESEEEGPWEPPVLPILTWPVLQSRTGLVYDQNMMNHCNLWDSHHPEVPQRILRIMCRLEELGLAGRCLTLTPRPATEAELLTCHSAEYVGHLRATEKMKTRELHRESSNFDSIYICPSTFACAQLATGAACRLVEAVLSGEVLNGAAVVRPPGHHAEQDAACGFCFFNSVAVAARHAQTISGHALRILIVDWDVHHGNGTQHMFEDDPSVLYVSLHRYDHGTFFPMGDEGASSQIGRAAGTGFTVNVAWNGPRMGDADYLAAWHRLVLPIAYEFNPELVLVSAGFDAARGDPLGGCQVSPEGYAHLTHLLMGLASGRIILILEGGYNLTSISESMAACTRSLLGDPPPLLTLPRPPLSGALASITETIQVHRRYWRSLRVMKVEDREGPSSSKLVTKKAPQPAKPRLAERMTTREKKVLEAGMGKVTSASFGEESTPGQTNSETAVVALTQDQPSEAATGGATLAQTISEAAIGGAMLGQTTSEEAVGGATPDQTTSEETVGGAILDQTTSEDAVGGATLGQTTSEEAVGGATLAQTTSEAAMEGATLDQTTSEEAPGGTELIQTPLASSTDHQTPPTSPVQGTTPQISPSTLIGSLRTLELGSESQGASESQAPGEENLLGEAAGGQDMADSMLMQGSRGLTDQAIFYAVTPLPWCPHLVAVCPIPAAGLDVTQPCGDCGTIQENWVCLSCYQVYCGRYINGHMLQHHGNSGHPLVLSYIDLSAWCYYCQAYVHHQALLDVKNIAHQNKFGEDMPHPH

MDA-MB-231 [5] = assay: Cytotoxicity against human MDA-MB-231 cells assessed as reduction in cell viability incubated for 72 hrs by SRB assay; assay type: functional, cell-based; conditions: MDA-MB-231, 72 h
[6] = Toxicity against Balb/c mouse implanted with mouse 4T1 cells assessed as effect on morphological changes in lung at 25 to 50 mg/kg, po administered daily for 15 days by Hematoxylin-Eosin staining based analysis; assay type: organism-based; conditions: in vivo, 360 h, dose 25-50 mg/kg, time 15 day
MDA-MB-231 [7] = assay: Induction of immunogenic cell death-associated DAMP release in human MDA-MB-231 cells assessed as increase in CRT expression level at 1 to 10 uM incubated for 24 hrs by western blot analysis; assay type: functional, cell-based; conditions: dose 1-10 µM
[8] = Lipophilicity, log D of the compound at pH 7.4; assay type: physicochemical; conditions: buffer
Histone deacetylase 9 = Histone deacetylase 9 (Homo sapiens, UniProt Q9UKV0); assay: Inhibition of HDAC9 (unknown origin) using Ac-Leu-Gly-Lys(tfa)-AMC as substrate preincubated for 5 mins followed by substrate addition for 30 mins and measured following trypsin addition for 30 mins by fluorescence based analysis
Chain of Histone deacetylase 9 (Q9UKV0 whole entry): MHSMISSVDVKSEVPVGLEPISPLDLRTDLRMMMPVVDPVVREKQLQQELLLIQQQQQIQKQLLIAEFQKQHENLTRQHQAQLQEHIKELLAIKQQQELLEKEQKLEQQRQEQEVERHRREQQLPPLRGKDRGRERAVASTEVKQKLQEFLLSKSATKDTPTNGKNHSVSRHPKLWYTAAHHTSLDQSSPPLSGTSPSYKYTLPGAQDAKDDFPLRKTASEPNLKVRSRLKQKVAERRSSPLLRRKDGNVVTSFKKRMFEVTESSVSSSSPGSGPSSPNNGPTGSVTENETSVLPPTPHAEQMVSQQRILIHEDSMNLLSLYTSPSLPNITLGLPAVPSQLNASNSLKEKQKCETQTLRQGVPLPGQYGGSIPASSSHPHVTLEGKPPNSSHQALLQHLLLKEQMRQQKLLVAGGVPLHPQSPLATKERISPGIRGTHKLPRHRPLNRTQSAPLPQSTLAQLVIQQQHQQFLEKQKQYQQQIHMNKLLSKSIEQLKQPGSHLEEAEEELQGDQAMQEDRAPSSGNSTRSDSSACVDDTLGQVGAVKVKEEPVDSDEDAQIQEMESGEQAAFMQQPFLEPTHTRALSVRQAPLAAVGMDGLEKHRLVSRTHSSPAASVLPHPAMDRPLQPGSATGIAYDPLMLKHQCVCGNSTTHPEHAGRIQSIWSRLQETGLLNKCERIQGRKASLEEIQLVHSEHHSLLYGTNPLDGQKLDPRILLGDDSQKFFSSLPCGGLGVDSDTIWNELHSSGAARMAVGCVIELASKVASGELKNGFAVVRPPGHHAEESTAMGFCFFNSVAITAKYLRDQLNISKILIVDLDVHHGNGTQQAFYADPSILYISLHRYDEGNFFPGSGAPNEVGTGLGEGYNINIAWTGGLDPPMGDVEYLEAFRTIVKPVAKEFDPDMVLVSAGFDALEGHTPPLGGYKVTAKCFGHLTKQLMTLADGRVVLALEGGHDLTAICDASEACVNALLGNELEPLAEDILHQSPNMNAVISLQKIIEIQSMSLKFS

Histone deacetylase 11 = target: T2, Histone deacetylase 11 (Homo sapiens, UniProt Q96DB2); assay: Inhibition of HDAC11 (unknown origin) using Ac-Leu-Gly-Lys(Ac)-AMC as substrate preincubated for 5 mins followed by substrate addition for 30 mins and measured following trypsin addition for 30 mins by fluorescence based analysis
T2 sequence (Q96DB2 whole entry): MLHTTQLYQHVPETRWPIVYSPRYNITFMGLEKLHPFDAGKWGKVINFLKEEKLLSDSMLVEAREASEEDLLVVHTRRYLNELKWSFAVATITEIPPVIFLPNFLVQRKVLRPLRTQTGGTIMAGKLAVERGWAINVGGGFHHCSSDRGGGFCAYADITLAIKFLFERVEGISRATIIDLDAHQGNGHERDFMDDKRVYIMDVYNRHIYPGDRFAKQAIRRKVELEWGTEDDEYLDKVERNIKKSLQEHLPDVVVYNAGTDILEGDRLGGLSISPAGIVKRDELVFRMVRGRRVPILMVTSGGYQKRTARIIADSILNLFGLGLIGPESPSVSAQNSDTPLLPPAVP

[9] = Chemical stability of the compound in PBS buffer at pH 7.4 measured after 10 days; assay type: physicochemical; conditions: time 10 day, read-out: Stability
MDA-MB-231 [10] = assay: Induction of immunogenic cell death-associated DAMP release in human MDA-MB-231 cells assessed as decrease in HMGB1 expression level at 1 to 10 uM incubated for 24 hrs by western blot analysis; assay type: functional, cell-based; conditions: dose 1-10 µM
[11] = Half-life in Balb/c mouse at 1 mg/kg, iv measured for 24 hrs by LC-MS/MS analysis; assay type: ADME, organism-based; conditions: in vivo
4T1 [12] = assay: Antitumor immunity against mouse 4T1 cells implanted in Balb/c mouse assessed as increase in CD3+ T cells in tumor tissue at 25 mg/kg, po administered daily for 15 days by flow cytometry; assay type: functional, organism-based; conditions: time 15.0 day
4T1 [13] = assay: Antitumor immunity against mouse 4T1 cells implanted in Balb/c mouse assessed as increase in CD4+ T cells in tumor tissue at 25 mg/kg, po administered daily for 15 days by flow cytometry; assay type: functional, organism-based; conditions: time 15.0 day
MDA-MB-231 [14] = assay: Induction of immunogenic cell death-associated DAMP release in human MDA-MB-231 cells assessed as increase in extracellular HMGB1 release by mesuring increase in HMGB1 level in medium supernatant at 10 uM incubated for 24 hrs by ELISA; assay type: functional, cell-based
MDA-MB-231 [15] = assay: Induction of immunogenic cell death-associated DAMP release in human MDA-MB-231 cells assessed as increase in CRT expression level by measuring increase in green fluorescence intensity at 1 to 10 uM incubated for 24 hrs by DAPI staining based immunofluorescence analysis; assay type: functional; conditions: dose 1-10 µM

- half-life [1]: 12.2 h
- IC50 [2]: 0.255 µM
- IC50 [4]: 0.00041 µM
- logD [8]: 3.29
- IC50 (Histone deacetylase 9): > 10 µM
- IC50 (Histone deacetylase 11): > 10 µM
- remaining at 240 h [9]: 98.5%
- half-life [11]: 22.3 h
SMILES: O=C(CCCCCCNC(=O)c1cc2cc(-c3cn[nH]c3)ccc2s1)NO
- IC50 (4T1 [3]): 0.73 µM
- IC50 (MDA-MB-231 [5]): 0.37 µM
- Activity [6]: Non-Toxic
- Activity (MDA-MB-231 [7]): Active
- Activity (MDA-MB-231 [10]): Active
- Activity (4T1 [12]): Active
- Activity (4T1 [13]): Active
- Activity (MDA-MB-231 [14]): Active
- Activity (MDA-MB-231 [15]): Active
